Assay results published in PubChem BioAssay AID2060502 (Molecular Pharmacology Branch, DTP, NCI, 2025).
“And” between values parts separate entries of the source, which are not always exact repeats. Equal entries are not always repeated.

Test system: 885724-159-R-J1-PDC complex spheroid viability
Assay: Anticancer human tumor 885724-159-R-J1-PDC patient-derived pancreatic adenocarcinoma cell line growth inhibition [GQUAD]
Details: for viability, T/C: stronger effect = lower value
Description: DNA G-quadruplex Stabilizer Agents in Combinations in Complex Spheroids
A high-throughput screen of multi-cell type tumor spheroids was designed to identify active combinations of DNA G-quadruplex stabilizer agents and targeted small molecules. Complex spheroids include a stromal component modeled by human endothelial cells (HUVEC) and fibroblasts modeled by human mesenchymal stem cells (MSCs). The concentration ranges selected for each drug and investigational agent were based upon clinically achievable concentrations if the clinical Cmax of the agent was known.
Compounds. The drugs and investigational agents: pidnarulex (CX-5461; NSC782164), APTO-253 (NSC789042), BRACO-19 (NSC847499), peposertib (NSC802822), ceralasertib (NSC780249), elimusertib (NSC800525), camonsertib (NSC841442), AZD-1390 (NSC803789), olaparib (NSC753686), talazoparib (NSC767125), ART-558 (NSC835418), sotorasib (NSC818433), MRTX-1133 (NSC836407), SN-38 (NSC673596), topotecan (NSC609699), etoposide (NSC141540), doxorubicin (NSC123127), gemcitabine (NSC613327), 5-fluorouracil (NSC19893), paclitaxel (NSC125973), vemurafenib (NSC761431), panobinostat (NSC761190), R-306465 (JNJ-16241199; NSC773264), adavosertib (NSC754352), TP-3654 (NSC805149), carboplatin (NSC241240), KSQ-4279 (NSC840948), and staurosporine (NSC755774) were obtained from the National Cancer Institute (NCI) Developmental Therapeutics Program Chemical Repository (34). The FDA-approved anticancer drug set is available from the NCI Developmental Therapeutics Program. […] The stock solutions were prepared in dimethyl sulfoxide (DMSO, Sigma-Aldrich, St. Louis, MO, cat. D2650) at 800-fold the tested concentration and stored at -70 degrees C prior to their use. All drugs and investigational agents were tested over a range starting from a high concentration at or near the clinical Cmax and decreasing in half-log increments. If the clinical Cmax for an agent had not been determined, the highest concentration tested was 10 microM.
2.3 Cell Culture. All cells were maintained in an incubator at 37 degrees C and 5% CO2 with 95% humidity. The PDC lines were cultured according to standard operating procedures established by the NCI PDMR. All PDCs were thawed and cultured in Matrigel-coated flasks prepared with a working solution of 1X Ham's F-12 nutrient mix, without supplementation (Invitrogen, cat. 11765054), 100 U/mL penicillin-streptomycin (Invitrogen, cat. 15140122), and 2.5% Matrigel (Corning Inc., cat. 354248) for the first three passages. The 857933-349-R-J2-PDC line was cultured in 6C/Colon 1B media, which includes advanced DMEM/F-12 (Thermo Fisher Scientific, cat. 12634028), 10 mM HEPES (Thermo Fisher Scientific, cat. 15630080), 1X GlutaMAX supplement (Thermo Fisher Scientific, cat. 35050061), 0.1 mg/mL primocin (InvivoGen, cat. ant-pm-2), 10% defined fetal bovine serum, heat inactivated (HyClone Laboratories Inc., cat. SH30070.03HI), 50% L-WRN conditioned media (ATCC, cat. CRL-3276), 1.25 mM N-Acetyl-L-cysteine (Sigma-Aldrich, cat. A9165), 10 mM nicotinamide (Sigma-Aldrich, cat. N0636), 1X B-27 supplement (Thermo Fisher Scientific, cat. 17504044), 1X N-2 supplement (Thermo Fisher Scientific, cat. 17502048), 10 microM Y-27632 dihydrochloride (Tocris Bioscience, cat. 1254), and 50 ng/mL human EGF recombinant protein (Thermo Fisher Scientific, cat. PHG0311). The 485176-168-R4-J1-PDC line was cultured in Panc media, which includes all 6C/Colon 1B media components plus 100 ng/mL human FGF-10 (Thermo Fisher Scientific, cat. 100-26), 500 nM SB-431542 (Selleckchem, cat. S1067), and gastrin (Tocris, cat. 3006).
[…]
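Also: spheroids exposed to agents for seven days before readout.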
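For viability, T/C in this document: percent of vehicle control viability where 100% = DMSO wells.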

For `COc1ccc([C@@H](O)c2cc(-c3ncnc4cc(N5CCOCC5)ccc34)c(F)cc2Cl)nn1`, which viability, T/C (compound 0.0316 µM) is on record?
The viability, T/C was 97.9% and 93.6% and 102%.

And the viability, T/C (compound 0.1 µM)?
The viability, T/C was 99.9% and 83.8% and 90.8%.

And the viability, T/C (compound 0.316 µM)?
The viability, T/C was 85.5% and 98.2% and 81.1%.

What about the viability, T/C (compound 1 µM) of the same molecule?
The viability, T/C was 87.8% and 74.6% and 83.2%.

And the viability, T/C (compound 3.16 µM)?
The viability, T/C was 64.8% and 59.1% and 64.2%.

What about the viability, T/C (compound 10 µM) of the same molecule?
Its viability, T/C is 39.9% and 41.8% and 37.1%.

What about the IC50 (curve of compound) of the same molecule?
Its IC50 is 6400 nM and 5560 nM and 5780 nM.

How did the viability, T/C (compound 0.000999 µM) turn out when `Cn1ncnc1[C@H]1c2n[nH]c(=O)c3cc(F)cc(c23)N[C@@H]1c1ccc(F)cc1` was run?
The viability, T/C was 93.4% and 97.4% and 94.5%.

What about the viability, T/C (compound 0.00316 µM) of the same molecule?
Its viability, T/C is 108% and 94.8% and 82.2%.

What about the viability, T/C (compound 0.00999 µM) of the same molecule?
Its viability, T/C is 87.3% and 97.6% and 97.2%.

What about the viability, T/C (compound 0.0316 µM) of the same molecule?
The viability, T/C was 92.5% and 97.9% and 93.9%.

What about the viability, T/C (compound 0.0999 µM) of the same molecule?
Its viability, T/C is 88.5% and 97.7% and 103%.

And the viability, T/C (compound 0.316 µM)?
The viability, T/C was 89.2% and 88% and 94.4%.

What about the IC50 (curve of compound) of the same molecule?
Its IC50 is greater than 316 nM.

Which results are given for `Cc1[nH]c2ccccc2c1CCNCc1ccc(/C=C/C(=O)NO)cc1` + CN(C)c1ccc(Nc2c3ccc(NC(=O)CCN4CCCC4)cc3nc3cc(NC(=O)CCN4CCCC4)ccc23)cc1?
IC50 (curve of first compound, second compound 0.0316 µM): > 316 nM; IC50 (curve of first compound, second compound 0.1 µM): > 316 nM; IC50 (curve of first compound, second compound 0.316 µM): 286 nM; IC50 (curve of first compound, second compound 1 µM): 214 nM; IC50 (curve of first compound, second compound 3.16 µM): 92.9 nM; IC50 (curve of first compound, second compound 10 µM): 152 nM; viability, T/C (second compound 0.0316 µM, first compound 0.000999 µM): 103%; viability, T/C (second compound 0.0316 µM, first compound 0.00316 µM): 98.3%; viability, T/C (second compound 0.0316 µM, first compound 0.00999 µM): 93.1%; viability, T/C (second compound 0.0316 µM, first compound 0.0316 µM): 96.9%; viability, T/C (second compound 0.0316 µM, first compound 0.0999 µM): 124%; viability, T/C (second compound 0.0316 µM, first compound 0.316 µM): 60.1%; viability, T/C (second compound 0.1 µM, first compound 0.000999 µM): 99.8%; viability, T/C (second compound 0.1 µM, first compound 0.00316 µM): 91.7%; viability, T/C (second compound 0.1 µM, first compound 0.00999 µM): 95%; viability, T/C (second compound 0.1 µM, first compound 0.0316 µM): 125%; viability, T/C (second compound 0.1 µM, first compound 0.0999 µM): 105%; viability, T/C (second compound 0.1 µM, first compound 0.316 µM): 54.1%; viability, T/C (second compound 0.316 µM, first compound 0.000999 µM): 84.7%; viability, T/C (second compound 0.316 µM, first compound 0.00316 µM): 94%; viability, T/C (second compound 0.316 µM, first compound 0.00999 µM): 95.3%; viability, T/C (second compound 0.316 µM, first compound 0.0316 µM): 84.6%; viability, T/C (second compound 0.316 µM, first compound 0.0999 µM): 112%; viability, T/C (second compound 0.316 µM, first compound 0.316 µM): 45.7%; viability, T/C (second compound 1 µM, first compound 0.000999 µM): 90.3%; viability, T/C (second compound 1 µM, first compound 0.00316 µM): 75.6%; viability, T/C (second compound 1 µM, first compound 0.00999 µM): 75.5%; viability, T/C (second compound 1 µM, first compound 0.0316 µM): 77.5%; viability, T/C (second compound 1 µM, first compound 0.0999 µM): 69.8%; viability, T/C (second compound 1 µM, first compound 0.316 µM): 40.3%; viability, T/C (second compound 3.16 µM, first compound 0.000999 µM): 65.2%; viability, T/C (second compound 3.16 µM, first compound 0.00316 µM): 81.4%; viability, T/C (second compound 3.16 µM, first compound 0.00999 µM): 82.1%; viability, T/C (second compound 3.16 µM, first compound 0.0316 µM): 73.1%; viability, T/C (second compound 3.16 µM, first compound 0.0999 µM): 48.5%; viability, T/C (second compound 3.16 µM, first compound 0.316 µM): 40.1%; viability, T/C (second compound 10 µM, first compound 0.000999 µM): 65%; viability, T/C (second compound 10 µM, first compound 0.00316 µM): 58.3%; viability, T/C (second compound 10 µM, first compound 0.00999 µM): 59.6%; viability, T/C (second compound 10 µM, first compound 0.0316 µM): 55.6%; viability, T/C (second compound 10 µM, first compound 0.0999 µM): 69.3%; viability, T/C (second compound 10 µM, first compound 0.316 µM): 30%
